Assay results reported in PMC7180948, “New Insights into 4-Anilinoquinazolines as Inhibitors of Cardiac Troponin I–Interacting Kinase (TNNi3K)” (Molecules, 2020).

Columns and labels:
Assay in all cases: biochemical
Set-up in all cases: KINOMEscan competition binding panel (Eurofins DiscoverX), single concentration, % inhibition
Conditions in all cases: read-out: 7 at 1 µM % inhibition
RIPK5 = molecular target: T1, RIPK5 (Homo sapiens, UniProt Q6XUX3)
T1 construct: gene DSTYK
Summary of the method: (§1)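 Values come from single-concentration (1 µM) profiling in the Eurofins DiscoverX KINOMEscan competition-binding platform, which covers over 400 kinases.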

DAPK1 = DAPK1 (Homo sapiens, UniProt P53355)
Summary of the method: as §1

STK16 = STK16 (Homo sapiens, UniProt O75716)
Summary of the method: as §1

RAF1 = RAF1 (Homo sapiens, UniProt P04049)
Chain of RAF1 (P04049 whole entry): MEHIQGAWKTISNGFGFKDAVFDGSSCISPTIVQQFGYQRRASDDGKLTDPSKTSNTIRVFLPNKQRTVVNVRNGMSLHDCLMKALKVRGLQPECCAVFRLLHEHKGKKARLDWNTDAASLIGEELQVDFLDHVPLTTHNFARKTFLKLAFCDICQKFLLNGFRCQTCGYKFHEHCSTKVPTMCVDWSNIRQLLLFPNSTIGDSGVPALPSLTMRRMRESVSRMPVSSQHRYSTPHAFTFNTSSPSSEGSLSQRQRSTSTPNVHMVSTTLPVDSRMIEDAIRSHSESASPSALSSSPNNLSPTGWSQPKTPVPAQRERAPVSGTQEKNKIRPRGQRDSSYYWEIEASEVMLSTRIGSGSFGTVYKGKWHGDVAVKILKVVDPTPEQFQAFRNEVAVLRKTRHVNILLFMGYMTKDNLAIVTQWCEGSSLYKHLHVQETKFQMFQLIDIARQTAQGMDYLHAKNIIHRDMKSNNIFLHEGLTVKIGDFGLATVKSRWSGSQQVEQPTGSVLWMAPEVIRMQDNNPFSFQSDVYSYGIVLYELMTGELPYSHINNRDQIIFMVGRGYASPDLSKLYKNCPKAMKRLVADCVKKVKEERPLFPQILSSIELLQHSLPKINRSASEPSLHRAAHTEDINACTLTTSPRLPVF
Summary of the method: as §1

PRKCD = PRKCD (Homo sapiens, UniProt Q05655)
Summary of the method: as §1

[1] = molecular target: T2, ABL1(H396P)-phosphorylated (Homo sapiens, UniProt P00519, H396P)
T2 construct: phosphorylated
Summary of the method: as §1

FLT3(N841I) = FLT3(N841I) (Homo sapiens, UniProt P36888, N841I)
Summary of the method: as §1

PCTK1 = molecular target: T3, PCTK1 (Homo sapiens, UniProt Q00536)
T3 construct: gene CDK16
Summary of the method: as §1

WNK2 = WNK2 (Homo sapiens, UniProt Q9Y3S1)
Chain of WNK2 (Q9Y3S1 whole entry): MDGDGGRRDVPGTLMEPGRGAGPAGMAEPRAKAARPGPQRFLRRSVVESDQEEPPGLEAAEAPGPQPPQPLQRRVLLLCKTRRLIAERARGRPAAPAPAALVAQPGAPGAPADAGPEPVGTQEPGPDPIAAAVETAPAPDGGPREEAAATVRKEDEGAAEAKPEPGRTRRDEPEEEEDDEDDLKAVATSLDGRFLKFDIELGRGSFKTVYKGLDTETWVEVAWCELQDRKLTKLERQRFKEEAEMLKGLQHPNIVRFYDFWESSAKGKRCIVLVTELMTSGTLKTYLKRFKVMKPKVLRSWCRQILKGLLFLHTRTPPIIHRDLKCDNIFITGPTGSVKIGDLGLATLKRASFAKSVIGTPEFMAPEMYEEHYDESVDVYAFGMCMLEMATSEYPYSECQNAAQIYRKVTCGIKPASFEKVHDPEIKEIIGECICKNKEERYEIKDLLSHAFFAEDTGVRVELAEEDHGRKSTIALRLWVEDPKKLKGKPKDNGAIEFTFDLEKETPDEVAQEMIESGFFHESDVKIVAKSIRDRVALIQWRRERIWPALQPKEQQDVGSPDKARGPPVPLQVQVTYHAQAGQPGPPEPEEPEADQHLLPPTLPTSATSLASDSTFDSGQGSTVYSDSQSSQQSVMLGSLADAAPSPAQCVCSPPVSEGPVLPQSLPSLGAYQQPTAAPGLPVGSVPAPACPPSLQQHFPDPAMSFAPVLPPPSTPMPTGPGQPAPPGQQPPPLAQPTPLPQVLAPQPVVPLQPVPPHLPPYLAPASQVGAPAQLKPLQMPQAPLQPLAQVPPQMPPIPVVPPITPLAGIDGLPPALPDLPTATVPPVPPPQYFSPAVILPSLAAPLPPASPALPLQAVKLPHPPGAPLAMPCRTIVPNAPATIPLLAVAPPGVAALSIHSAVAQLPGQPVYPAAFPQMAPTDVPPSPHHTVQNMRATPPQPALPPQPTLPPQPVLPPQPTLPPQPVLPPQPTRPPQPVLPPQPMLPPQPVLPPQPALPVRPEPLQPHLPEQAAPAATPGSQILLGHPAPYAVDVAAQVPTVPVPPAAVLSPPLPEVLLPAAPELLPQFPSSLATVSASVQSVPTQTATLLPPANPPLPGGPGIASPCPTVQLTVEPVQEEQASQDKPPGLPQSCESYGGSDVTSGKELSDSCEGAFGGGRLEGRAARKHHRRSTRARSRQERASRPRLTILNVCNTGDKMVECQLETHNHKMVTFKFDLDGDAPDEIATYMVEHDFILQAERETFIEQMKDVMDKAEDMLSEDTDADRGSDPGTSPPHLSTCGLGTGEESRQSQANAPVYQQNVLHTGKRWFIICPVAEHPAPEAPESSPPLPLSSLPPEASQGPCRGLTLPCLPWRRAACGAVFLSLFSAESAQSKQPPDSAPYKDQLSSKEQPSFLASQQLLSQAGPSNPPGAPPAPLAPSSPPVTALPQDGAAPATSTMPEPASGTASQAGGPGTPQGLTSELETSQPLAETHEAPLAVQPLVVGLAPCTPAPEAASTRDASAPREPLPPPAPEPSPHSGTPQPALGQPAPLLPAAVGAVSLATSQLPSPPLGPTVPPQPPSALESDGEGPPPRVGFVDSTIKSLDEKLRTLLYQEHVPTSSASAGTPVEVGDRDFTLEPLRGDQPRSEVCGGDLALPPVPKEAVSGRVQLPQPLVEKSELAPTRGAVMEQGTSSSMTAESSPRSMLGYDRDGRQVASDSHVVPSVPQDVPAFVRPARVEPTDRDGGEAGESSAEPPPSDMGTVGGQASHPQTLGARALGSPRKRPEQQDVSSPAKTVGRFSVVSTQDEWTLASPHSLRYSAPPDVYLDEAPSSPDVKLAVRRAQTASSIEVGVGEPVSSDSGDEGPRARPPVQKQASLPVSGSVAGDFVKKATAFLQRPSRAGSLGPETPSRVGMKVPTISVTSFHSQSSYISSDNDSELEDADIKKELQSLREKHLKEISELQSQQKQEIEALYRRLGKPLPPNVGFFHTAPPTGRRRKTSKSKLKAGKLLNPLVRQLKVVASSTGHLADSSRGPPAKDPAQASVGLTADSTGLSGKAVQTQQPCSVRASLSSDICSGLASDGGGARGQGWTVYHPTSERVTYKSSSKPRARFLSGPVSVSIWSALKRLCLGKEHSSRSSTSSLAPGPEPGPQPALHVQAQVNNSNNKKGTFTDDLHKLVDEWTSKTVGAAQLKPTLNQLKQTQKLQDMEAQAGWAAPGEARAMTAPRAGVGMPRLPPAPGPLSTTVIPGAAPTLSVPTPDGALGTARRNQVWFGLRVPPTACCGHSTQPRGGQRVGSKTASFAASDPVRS
Summary of the method: as §1

DYRK2 = DYRK2 (Homo sapiens, UniProt Q92630)
Summary of the method: as §1

PRKCQ = PRKCQ (Homo sapiens, UniProt Q04759)
Summary of the method: as §1

AURKC = AURKC (Homo sapiens, UniProt Q9UQB9)
Chain of AURKC (Q9UQB9 whole entry): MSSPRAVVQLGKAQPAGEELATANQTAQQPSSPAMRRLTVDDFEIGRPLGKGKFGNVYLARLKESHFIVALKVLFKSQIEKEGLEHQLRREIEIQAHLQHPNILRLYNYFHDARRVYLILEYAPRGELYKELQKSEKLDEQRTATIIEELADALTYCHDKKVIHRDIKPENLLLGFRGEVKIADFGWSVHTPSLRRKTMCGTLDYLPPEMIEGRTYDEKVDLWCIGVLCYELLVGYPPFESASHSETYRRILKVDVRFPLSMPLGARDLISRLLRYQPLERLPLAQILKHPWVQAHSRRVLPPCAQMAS
Summary of the method: as §1

LZK = molecular target: T4, LZK (Homo sapiens, UniProt O43283)
T4 construct: gene MAP3K13
Summary of the method: as §1

ACVR1 = ACVR1 (Homo sapiens, UniProt Q04771)
Summary of the method: as §1

BRK = molecular target: T5, BRK (Homo sapiens, UniProt Q13882)
T5 construct: gene PTK6
Summary of the method: as §1

EPHB4 = EPHB4 (Homo sapiens, UniProt P54760)
Summary of the method: as §1

SRPK2 = SRPK2 (Homo sapiens, UniProt P78362)
Summary of the method: as §1

RIOK2 = RIOK2 (Homo sapiens, UniProt Q9BVS4)
Summary of the method: as §1

ADCK4 = molecular target: T6, ADCK4 (Homo sapiens, UniProt Q96D53)
T6 construct: gene COQ8B
Summary of the method: as §1

NIM1 = molecular target: T7, NIM1 (Homo sapiens, UniProt Q8IY84)
T7 construct: gene NIM1K
T7 sequence (Q8IY84 whole entry): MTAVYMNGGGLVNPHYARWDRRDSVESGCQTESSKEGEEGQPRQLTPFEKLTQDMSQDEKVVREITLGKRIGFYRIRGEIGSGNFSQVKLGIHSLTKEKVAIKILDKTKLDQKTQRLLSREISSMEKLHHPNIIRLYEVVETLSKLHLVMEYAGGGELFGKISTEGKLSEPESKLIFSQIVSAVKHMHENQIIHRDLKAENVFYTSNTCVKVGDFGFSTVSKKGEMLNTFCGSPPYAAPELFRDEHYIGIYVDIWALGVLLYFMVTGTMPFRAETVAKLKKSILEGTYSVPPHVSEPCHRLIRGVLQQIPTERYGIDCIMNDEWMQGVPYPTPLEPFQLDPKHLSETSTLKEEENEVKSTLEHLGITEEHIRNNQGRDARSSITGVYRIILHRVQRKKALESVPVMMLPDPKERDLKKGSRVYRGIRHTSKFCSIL
Summary of the method: as §1

PCTK3 = molecular target: T8, PCTK3 (Homo sapiens, UniProt Q07002)
T8 construct: gene CDK18
Summary of the method: as §1

PIK3CG = PIK3CG (Homo sapiens, UniProt P48736)
Summary of the method: as §1

DMPK = DMPK (Homo sapiens, UniProt Q09013)
Summary of the method: as §1

[2] = molecular target: EGFR(L747-E749del, A750P) (Homo sapiens, UniProt P00533, A750P/DEL747-749)
Chain of EGFR(L747-E749del, A750P) (P00533 with tags, fused parts or gaps DEL747-749/A750P): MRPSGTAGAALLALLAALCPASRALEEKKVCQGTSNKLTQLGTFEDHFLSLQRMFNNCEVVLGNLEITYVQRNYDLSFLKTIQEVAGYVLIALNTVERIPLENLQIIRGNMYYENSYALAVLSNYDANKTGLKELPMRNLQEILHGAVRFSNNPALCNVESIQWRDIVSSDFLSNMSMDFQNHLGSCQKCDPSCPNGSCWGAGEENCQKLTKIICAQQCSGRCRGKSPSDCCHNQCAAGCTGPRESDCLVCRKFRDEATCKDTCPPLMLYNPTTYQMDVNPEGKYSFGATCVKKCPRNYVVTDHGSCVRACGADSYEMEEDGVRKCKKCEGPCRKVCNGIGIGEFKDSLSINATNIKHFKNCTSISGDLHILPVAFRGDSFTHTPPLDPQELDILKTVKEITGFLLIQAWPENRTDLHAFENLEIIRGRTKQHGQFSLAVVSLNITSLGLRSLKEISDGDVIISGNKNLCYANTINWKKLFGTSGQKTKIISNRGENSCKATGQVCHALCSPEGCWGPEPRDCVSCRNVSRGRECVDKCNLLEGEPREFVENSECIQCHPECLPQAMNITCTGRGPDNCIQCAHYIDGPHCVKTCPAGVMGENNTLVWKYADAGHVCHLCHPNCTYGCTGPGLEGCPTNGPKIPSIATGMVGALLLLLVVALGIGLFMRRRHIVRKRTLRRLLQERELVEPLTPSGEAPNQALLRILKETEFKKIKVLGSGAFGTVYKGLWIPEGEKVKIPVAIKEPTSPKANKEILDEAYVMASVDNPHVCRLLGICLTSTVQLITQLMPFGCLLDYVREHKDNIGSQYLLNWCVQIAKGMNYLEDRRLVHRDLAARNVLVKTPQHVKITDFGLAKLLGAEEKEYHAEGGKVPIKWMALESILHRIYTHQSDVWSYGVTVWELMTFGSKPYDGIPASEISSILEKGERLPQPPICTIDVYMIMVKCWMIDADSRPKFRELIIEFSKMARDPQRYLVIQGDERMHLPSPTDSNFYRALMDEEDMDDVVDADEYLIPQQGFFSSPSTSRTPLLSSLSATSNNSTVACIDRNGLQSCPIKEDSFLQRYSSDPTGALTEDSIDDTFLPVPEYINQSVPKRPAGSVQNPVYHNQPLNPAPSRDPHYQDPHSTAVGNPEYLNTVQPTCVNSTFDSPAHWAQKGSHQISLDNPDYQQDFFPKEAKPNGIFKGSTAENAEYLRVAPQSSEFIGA
Summary of the method: as §1

**Q.** `CNS(=O)(=O)c1ccc(N(C)C)c(Nc2ncnc3cc(OC)c(OC)cc23)c1` [compound 7, 3-((6,7-dimethoxyquinazolin-4-yl)amino)-4-(dimethylamino)-N-methylbenzenesulfonamide] was tested. Which inhibition at 1 µM (RIPK5) did it give?
**A.** Its inhibition at 1 µM is 49%.

**Q.** What about the inhibition at 1 µM (DAPK1) of the same compound?
**A.** Its inhibition at 1 µM is 0%.

**Q.** And the inhibition at 1 µM (STK16)?
**A.** Its inhibition at 1 µM is 0%.

**Q.** And the inhibition at 1 µM (RAF1)?
**A.** Its inhibition at 1 µM is 23%.

**Q.** And the inhibition at 1 µM (PRKCD)?
**A.** Its inhibition at 1 µM is 24%.

**Q.** What about the inhibition at 1 µM [1] of the same compound?
**A.** Its inhibition at 1 µM is 34%.

**Q.** And the inhibition at 1 µM (FLT3(N841I))?
**A.** The inhibition at 1 µM was 0%.

**Q.** What about the inhibition at 1 µM (PCTK1) of the same compound?
**A.** The inhibition at 1 µM was 13%.

**Q.** What about the inhibition at 1 µM (WNK2) of the same compound?
**A.** Its inhibition at 1 µM is 0%.

**Q.** And the inhibition at 1 µM (DYRK2)?
**A.** Its inhibition at 1 µM is 0%.

**Q.** And the inhibition at 1 µM (PRKCQ)?
**A.** The inhibition at 1 µM was 28%.

**Q.** What about the inhibition at 1 µM (AURKC) of the same compound?
**A.** Its inhibition at 1 µM is 0%.

**Q.** And the inhibition at 1 µM (LZK)?
**A.** The inhibition at 1 µM was 23%.

**Q.** And the inhibition at 1 µM (ACVR1)?
**A.** The inhibition at 1 µM was 0%.

**Q.** And the inhibition at 1 µM (BRK)?
**A.** Its inhibition at 1 µM is 0%.

**Q.** What about the inhibition at 1 µM (EPHB4) of the same compound?
**A.** Its inhibition at 1 µM is 0%.

**Q.** What about the inhibition at 1 µM (SRPK2) of the same compound?
**A.** Its inhibition at 1 µM is 15%.

**Q.** And the inhibition at 1 µM (RIOK2)?
**A.** Its inhibition at 1 µM is 0%.

**Q.** And the inhibition at 1 µM (ADCK4)?
**A.** The inhibition at 1 µM was 0%.

**Q.** And the inhibition at 1 µM (NIM1)?
**A.** Its inhibition at 1 µM is 31%.

**Q.** What about the inhibition at 1 µM (PCTK3) of the same compound?
**A.** Its inhibition at 1 µM is 0%.

**Q.** And the inhibition at 1 µM (PIK3CG)?
**A.** The inhibition at 1 µM was 45%.

**Q.** What about the inhibition at 1 µM (DMPK) of the same compound?
**A.** The inhibition at 1 µM was 0%.

**Q.** And the inhibition at 1 µM [2]?
**A.** Its inhibition at 1 µM is 0%.
